Columns and labels:
[1] = molecular target: kainic acid (KA) receptor; test: Inhibition of KA-induced currents in rat brain mRNA-injected Xenopus oocytes; assay type: cell-based; conditions: for Ki, inhibition of KA-induced currents: Table I, Xenopus oocytes injected with rat brain mRNA, IC50 converted by Cheng-Prusoff equation; for Ki: read-out: Ki values (Table I)
Description: (§1) Defolliculated oocytes obtained from Xenopus laevis females were injected with 30-75 ng of poly (A^+) mRNA obtained from 21-day old male Sprague-Dawley rats. Oocytes are placed individually in […] of antibiotic-supplemented modified Barthes solution (MBS, containing in mM: NaCl, 88; KCl, 1.0; NaHCO3, 2.4; HEPES, 10; MgSO4, 0.82; Ca(NO3)2, 0.33) in 96-well sterile plates and cultured for 48-120 hours prior to experimentation. Oocytes are inspected every 24 hours at which time the bathing solution is replaced with fresh MBS.
(§2) For electrophysiological studies, oocytes are positioned in a small recording chamber ([…]) and superfused with antibiotic-free MBS supplemented with CaCl2 (final concentration=1.4 mM). For NMDA studies, MgSO4 is replaced with NaSO4 (0.55 mM). Oocytes are impaled with a single glass microelectrode, voltage-clamped at -60 to -70 mV, and perfused by gravity feed at a rate of 3-5 ml/min at room temperature. Drugs are dissolved in the perfusate (pH adjusted to 7.3-7.4) and perfused for 1-2 min or until the response has reached a plateau, followed by a 4 min perfusion in the absence of drug(s). Antagonists are coperfused with agonists. MBS used in NMDA assays is prepared from "glycine-free", deionized water.
(§3) Potencies to inhibit kainic acid-, AMPA- and NMDA/glycine-induced currents are determined from concentration-response curves. IC50 values and Hill coefficients are determined by analysis of indirect Hill plots. IC50 values are converted to Ki values for comparison purposes using the Cheng-Prusoff equation.

AMPA receptor = test: Inhibition of AMPA-induced currents in rat brain mRNA-injected Xenopus oocytes; assay type: cell-based; conditions: Table I; Xenopus oocytes injected with rat brain mRNA; IC50 converted by Cheng-Prusoff equation
Description: as §1, §2, §3

kainate receptors = conditions: U.S. Pat. No. 4,657,899, Table I on column 13; cited from earlier work
NMDA = conditions: U.S. Pat. No. 4,657,899; cited from earlier work
PTZ-induced seizures = test: Protection against pentylenetetrazole (PTZ)-induced seizures; assay type: in vivo, mouse (male CF-1); conditions: for ED50: Mus musculus, ip, 0.5 h, i.p.; for ED50 / ED50 against PTZ-induced seizures, i.c.v.: 30 min before s.c. PTZ 85 mg/kg
Description: Animals were then placed in individual observation cages and monitored for 30 min for the appearance of clonic convulsions. Failure to observe a clonic convulsion lasting at least 5 sec during the observation period was considered evidence of anticonvulsant activity.
PTZ seizure studies were performed as described in the text.

[2] = test system: choline acetyltransferase (ChAT), marker for striatal cholinergic interneurons; test: Kainic acid-induced striatal toxicity, choline acetyltransferase (ChAT) activity; assay type: in vivo, rat (male Sprague-Dawley)
Description: (§4) Kainic acid-induced lesion studies were performed using rats (male Sprague-Dawley, 200-250 g, Harlan Industries). Animals were anesthetized with Chloropent (1.5 ml/kg) and a cannula was inserted into the corpus striatum at the coordinates A 0.8, V 4.3, L 3.0 (bregma=0) using standard stereotaxic procedures. Compounds were dissolved in dH2 O and neutralized using dilute NaOH, and administered over a period of 2 min in a final volume of […]. Following an additional 2 min the cannula was withdrawn, the incision closed with woundclips, and the animals returned to their home cage for a 3 day recovery period. Kainic acid (10 nmoles) was used to induce striatal lesions. Compound XX (300 nmoles) was coadministered with kainic acid.
(§5) Following decapitation, the corpus striatum ipsiand contralateral to the injection were removed, immediately frozen on dry ice, and stored at -80° C. until assayed. The activities of choline acetyltransferase (ChAT) and glutamic acid decarboxylase (GAD), markers for striatal cholinergic and GABAergic interneurons, respectively, were determined using standard procedures to assess the extent of the lesion.
(§6) Ka-induced lesions were performed as described in the text. The results are expressed as the percentage of enzyme activity in the ipsilateral (injected) striatum relative to enzyme activity in the contralateral (uninjected) striatum. The values represent the mean+standard deviation of 4 (Example I) or 12 (vehicle) determinations.

[3] = test system: glutamic acid decarboxylase (GAD), marker for striatal GABAergic interneurons; test: Kainic acid-induced striatal toxicity, glutamic acid decarboxylase (GAD) activity; assay type: in vivo, rat (male Sprague-Dawley)
Description: as §4, §5, §6

[4] = coadministered (300 nmoles) with kainic acid (10 nmoles), intrastriatal, 3 day recovery, mean+standard deviation of 4
[5] = coadministration of kainic acid with Example I
[6] = intrastriatal injection of kainic acid alone (10 nmoles)

Row | SMILES | Ki, inhibition of KA-induced currents [1] | Ki (AMPA receptor) | Ki [1] | further results
1 | Cc1cc(C)c(CCP(=O)(O)O)c(C[C@H](N)C(=O)O)c1 [Example 7, 3,5-Dimethyl-2-(2-phosphonoethyl)phenylalanine] | 12 µM | 39 µM |  | 
2 | N[C@@H](Cc1cc(F)ccc1CCP(=O)(O)O)C(=O)O [Example 5, 5-Fluoro-2-(2-phosphonoethyl)phenylalanine] | 68 µM | 167 µM | < 100 µM | 
3 | NC(CCCc1ccccc1CP(=O)(O)O)C(=O)O (stereo not drawn) [2-amino-5-[2-phosphonomethylphenyl]pentanoic acid] |  |  |  | binding affinity for kainate receptors (in words) (kainate receptors): very low binding affinity; NMDA antagonism (in words) (NMDA): antagonists of NMDA
4 | N[C@@H](Cc1cc(Br)ccc1CCP(=O)(O)O)C(=O)O [Example 3, 5-Bromo-2-(2-phosphonoethyl)phenylalanine] | 10 µM | 61 µM | < 100 µM | 
5 | N[C@@H](Cc1cc(-c2ccccc2)ccc1CCP(=O)(O)O)C(=O)O [Example 11, 5-Phenyl-2-(2phosphonoethyl)-phenylalanine] | 76 µM |  | < 100 µM | 
6 | O=c1[nH]c2cc([N+](=O)[O-])c([N+](=O)[O-])cc2[nH]c1=O [DNQX, reference compound] | 0.1 µM | 0.25 µM |  | 
7 | N[C@@H](Cc1cc(Cl)ccc1CCP(=O)(O)O)C(=O)O [Example 4, 5-Chloro-2-(2-phosphonoethyl)phenylalanine] | 15 µM | 48 µM | < 100 µM | 
8 | Cc1ccc(CCP(=O)(O)O)c(C[C@H](N)C(=O)O)c1 [Example 1, 5-Methyl-2-(2-phosphonoethyl)phenylalanine] | 11 µM | 13 µM | < 100 µM | ED50 (PTZ-induced seizures): 98 mg/kg; potency relative to CPP against PTZ-induced seizures (PTZ-induced seizures; i.c.v.): ~2 times; ED50 against PTZ-induced seizures, i.c.v. (PTZ-induced seizures; i.c.v.): 0.09 nmol; protection against PTZ-induced seizures (in words) (PTZ-induced seizures; mouse, in vivo): dose-dependent protection against PTZ-induced seizures; effect against PTZ-induced seizures following systemic administration (in words) (PTZ-induced seizures; systemic (i.p.) administration, compared with CPP): effective following systemic administration, but was less potent than CPP; ChAT, % Activity of Contralateral Striatum [2, 4]: 98 ± 6%; reduction in ChAT activity [2, 5]: 2%; GAD, % Activity of Contralateral Striatum [3, 4]: 88 ± 17%; reduction in GAD activity [3, 5]: 12%
9 | Cc1cccc(C[C@H](N)C(=O)O)c1CCP(=O)(O)O [Example 15, 3-Methyl-2-(2-phosphonoethyl)phenylalanine] | > 100 µM |  |  | 
10 | N[C@@H](Cc1cc(I)ccc1CCP(=O)(O)O)C(=O)O [Example 6, 5-Iodo-2-(2-phosphonoethyl)phenylalanine] | 3.6 µM | 16 µM | < 100 µM | 
11 | Cl.N[C@@H](Cc1cc(C2CCCCC2)ccc1CCP(=O)(O)O)C(=O)O [Example 12, 5-Cyclohexyl-2-(2-phosphonoethyl) phenylalanine hydrochloride] | 139 µM |  |  | 
12 | CCOC(=O)[C@@H](N)Cc1cc(C)ccc1CCP(=O)(O)O [Example 17, 5-Methyl-2-(2-phosphonoethyl)phenylalanine ethyl ester] | > 100 µM |  |  | 
13 | NC(Cc1ccccc1CCP(=O)(O)O)C(=O)O (stereo not drawn) [2-amino-3-[2-(2-phosphonoethyl)phenyl]propanoic acid] |  |  |  | binding affinity for kainate receptors (in words) (kainate receptors): very low binding affinity; NMDA antagonism (in words) (NMDA): antagonists of NMDA
14 | NC(Cc1ccccc1CCCP(=O)(O)O)C(=O)O (stereo not drawn) [2-amino-3-[2-(3-phosphonopropyl)phenyl]propanoic acid] |  |  |  | binding affinity for kainate receptors (in words) (kainate receptors): very low binding affinity; NMDA antagonism (in words) (NMDA): antagonists of NMDA
15 | CCc1ccc(CCP(=O)(O)O)c(C[C@H](N)C(=O)O)c1 [Example 2, 5-Ethyl-2-(2-phosphonoethyl)phenylalanine] | 17 µM | 50 µM | < 100 µM | 
16 | C=C(C)[C@H]1CN[C@H](C(=O)O)[C@H]1CC(=O)O [kainic acid, reference compound] |  |  |  | reduction in ChAT activity [2, 6]: 68%; reduction in GAD activity [3, 6]: 55%
17 | NC(Cc1ccccc1CP(=O)(O)O)C(=O)O (stereo not drawn) [2-amino-3-[2-phosphonomethylphenyl]propanoic acid] |  |  |  | binding affinity for kainate receptors (in words) (kainate receptors): very low binding affinity; NMDA antagonism (in words) (NMDA): antagonists of NMDA
18 | Cl.N[C@@H](Cc1cccc(-c2ccccc2)c1CCP(=O)(O)O)C(=O)O [Example 16, 3-Phenyl-2-(2-phosphonoethyl) phenylalanine hydrochloride] | 83 µM |  |  | 
19 | CC(C)(C)c1ccc(CCP(=O)(O)O)c(C[C@H](N)C(=O)O)c1 [Example 10, 5-t-Butyl-2-(2-phosphonoethyl)phenylalanine] | 29 µM |  |  | 
20 | O=C(O)C1CN(CCCP(=O)(O)O)CCN1 (stereo not drawn) [CPP, reference compound] |  |  |  | ED50 (PTZ-induced seizures): 7.3 mg/kg; ED50 against PTZ-induced seizures, i.c.v. (PTZ-induced seizures; i.c.v.): 0.15 nmol
21 | N[C@@H](Cc1ccc([N+](=O)[O-])cc1CCP(=O)(O)O)C(=O)O [Example 22, 4-Nitro-2-(2-phosphonoethyl)phenylalanine] | 13 µM |  |  | 
